According to US9850283B2, “Macrocyclic inhibitors of the PD-1/PD-L1 and CD80(B7-1)/PD-L1 protein/protein interactions” (BRISTOL-MYERS SQUIBB COMPANY, priority 2013, dated 2017):
Starred links: 1 amine or outer side, 2 acyl side, 3 side chain; linkers in the order of their positions; H or OH if unused. Positions of bridges follow the written chain, without caps; N, C: chain ends. Non-standard residues stand in square brackets, D forms with d. Residues, ends and D or L forms follow the SMILES beside them. ξ: configuration not given here. ξPro(4R-NH2) = O=C(C1C[C@@H](N[*:3])CN1[*:1])[*:2]; Bta = N[C@@H](Cc1csc2ccccc12)C(=O)O; NMeNle = CCCC[C@H](NC)C(=O)O; αMeP = C[C@@]1(C(=O)O)CCCN1; NMeS = CN[C@@H](CO)C(=O)O; NMeA = CN[C@@H](C)C(=O)O; ξAze = O=C(O)C1CCN1; Sar = CNCC(=O)O

Each compound was assayed against T1, Human PD-L1/PD-1 (Homo sapiens, UniProt Q9NZQ7) (assay: HTRF PD-1-Ig/PD-L1-His binding assay (human PD-L1)). Details: Table 8, Compound No. 1 variant macrocyclic peptides; read-out: HTRF Human PD-L1/PD-1 Binding Assay IC50.
T1 construct: made in house; host or cells: HEK293T
Source text: The ability of the macrocyclic peptides of the present disclosure to bind to PD-L1 was investigated using a PD-1/PD-L1 Homogenous Time-Resolved Fluorescence (HTRF) binding assay.
Homogenous Time-Resolved Fluorescence (HTRF) Assays of Binding of Soluble PD-1 to Soluble PD-L1. Soluble PD-1 and soluble PD-L1 refers to proteins with carboxyl-end truncations that remove the transmembrane-spanning regions and are fused to heterologous sequences, specifically the Fc portion of the human immunoglobuling G sequence (Ig) or the hexahistidine epitope tag (His). All binding studies were performed in an HTRF assay buffer consisting of dPBS supplemented with 0.1% (w/v) bovine serum albumin and 0.05% (v/v) Tween-20. […] PD-L1 fusion proteins from either human, cynomologous macaques, or mouse were used. HTRF detection was achieved using europium crypate-labeled anti-Ig monoclonal antibody (1 nM final) and allophycocyanin (APC) labeled anti-His monoclonal antibody (20 nM final). Antibodies were diluted in HTRF detection buffer and 5 μl was dispensed on top of binding reaction.

T1 sequence (Q9NZQ7 with tags, fused parts or gaps): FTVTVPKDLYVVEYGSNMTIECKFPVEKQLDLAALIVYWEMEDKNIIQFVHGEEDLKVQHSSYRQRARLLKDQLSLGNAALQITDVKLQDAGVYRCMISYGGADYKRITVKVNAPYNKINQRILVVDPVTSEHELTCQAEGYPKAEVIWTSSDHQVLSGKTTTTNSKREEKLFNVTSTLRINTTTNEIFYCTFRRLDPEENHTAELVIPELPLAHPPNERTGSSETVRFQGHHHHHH

Structure (SMILES) | IC50 [nM]
CCCC[C@H]1C(=O)N(C)[C@@H](CCCC)C(=O)N[C@@H](CCCNC(=N)N)C(=O)N[C@H](C(=O)NCC(N)=O)CSCC(=O)N[C@@H](Cc2ccccc2)C(=O)N(C)[C@@H](C)C(=O)N[C@@H](CC(N)=O)C(=O)N2C[C@H](N)CC2C(=O)N[C@@H](Cc2cnc[nH]2)C(=O)N[C@@H](CC(C)C)C(=O)N(C)CC(=O)N[C@@H](Cc2c[nH]c3ccccc23)C(=O)N[C@@H](CO)C(=O)N[C@@H](Cc2c[nH]c3ccccc23)C(=O)N1C (stereo partly drawn) [Compound No. 48] ({CH2CO}-F[NMeA]N[ξPro(4R-NH2)]HL[Sar]WSW[NMeNle][NMeNle]RCG-NH2; thioether N-14) | 40
CCCC[C@H]1C(=O)N(C)[C@@H](CCCC)C(=O)N[C@@H](CCCNC(=N)N)C(=O)N[C@H](C(=O)NCC(N)=O)CSCC(=O)N[C@@H](Cc2ccccc2)C(=O)N(C)[C@@H](C)C(=O)N[C@@H](CC(N)=O)C(=O)N2CCC[C@@]2(C)C(=O)N[C@@H](Cc2cnc[nH]2)C(=O)N[C@@H](CC(C)C)C(=O)N(C)CC(=O)N[C@@H](Cc2c[nH]c3ccccc23)C(=O)N[C@@H](CO)C(=O)N[C@@H](Cc2c[nH]c3ccccc23)C(=O)N1C [Compound No. 49] ({CH2CO}-F[NMeA]N[αMeP]HL[Sar]WSW[NMeNle][NMeNle]RCG-NH2; thioether N-14) | 34
CCCC[C@H]1C(=O)N(C)[C@@H](CCCC)C(=O)N[C@@H](CCCNC(=N)N)C(=O)N[C@H](C(=O)NCC(N)=O)CSCC(=O)N[C@@H](Cc2ccccc2)C(=O)N(C)[C@@H](C)C(=O)N[C@@H](CC(N)=O)C(=O)N2CCC2C(=O)N[C@@H](Cc2cnc[nH]2)C(=O)N[C@@H](CC(C)C)C(=O)N(C)CC(=O)N[C@@H](Cc2c[nH]c3ccccc23)C(=O)N[C@@H](CO)C(=O)N[C@@H](Cc2c[nH]c3ccccc23)C(=O)N1C (some centres unmarked) [Compound No. 50] ({CH2CO}-F[NMeA]N[ξAze]HL[Sar]WSW[NMeNle][NMeNle]RCG-NH2; thioether N-14) | 71
CCCC[C@H]1C(=O)N(C)[C@@H](CCCC)C(=O)N[C@@H](CCCNC(=N)N)C(=O)N[C@H](C(=O)NCC(N)=O)CSCC(=O)N[C@@H](Cc2ccccc2)C(=O)N(C)[C@@H](C)C(=O)N[C@@H](CC(N)=O)C(=O)N2CCC[C@H]2C(=O)N[C@@H](Cc2cnc[nH]2)C(=O)N[C@@H](CC(C)C)C(=O)N(C)[C@@H](CO)C(=O)N[C@@H](Cc2c[nH]c3ccccc23)C(=O)N[C@@H](CO)C(=O)N[C@@H](Cc2c[nH]c3ccccc23)C(=O)N1C [Compound No. 56] ({CH2CO}-F[NMeA]NPHL[NMeS]WSW[NMeNle][NMeNle]RCG-NH2; thioether N-14) | 13
CCCC[C@H]1C(=O)N(C)[C@@H](CCCC)C(=O)N[C@@H](CCCNC(=N)N)C(=O)N[C@H](C(=O)NCC(N)=O)CSCC(=O)N[C@@H](Cc2ccccc2)C(=O)N(C)[C@@H](C)C(=O)N[C@@H](CC(N)=O)C(=O)N2CCC[C@H]2C(=O)N[C@@H](Cc2c[nH]cn2)C(=O)N[C@@H](CC(C)C)C(=O)N(C)CC(=O)N[C@@H](Cc2c[nH]c3ccccc23)C(=O)N[C@H](CCC(N)=O)C(=O)N[C@@H](Cc2c[nH]c3ccccc23)C(=O)N1C [Compound No. 59] ({CH2CO}-F[NMeA]NPHL[Sar]W[dQ]W[NMeNle][NMeNle]RCG-NH2; thioether N-14 (inferred)) | > 10000
CCCC[C@H]1C(=O)N(C)[C@@H](CCCC)C(=O)N[C@@H](C)C(=O)N[C@H](C(=O)NCC(N)=O)CSCC(=O)N[C@@H](Cc2ccccc2)C(=O)N(C)[C@@H](C)C(=O)N[C@@H](CC(N)=O)C(=O)N2CCC[C@H]2C(=O)N[C@@H](Cc2cnc[nH]2)C(=O)N[C@@H](CC(C)C)C(=O)N(C)CC(=O)N[C@@H](Cc2c[nH]c3ccccc23)C(=O)N[C@H](C)C(=O)N[C@@H](Cc2c[nH]c3ccccc23)C(=O)N1C [Compound No. 60] ({CH2CO}-F[NMeA]NPHL[Sar]W[dA]W[NMeNle][NMeNle]ACG-NH2; thioether N-14) | 43
CCCC[C@H]1C(=O)N(C)[C@@H](CCCC)C(=O)N[C@@H](CCCNC(=N)N)C(=O)N[C@H](C(=O)NCC(N)=O)CSCC(=O)N[C@@H](Cc2ccccc2)C(=O)N(C)[C@@H](C)C(=O)N[C@@H](CC(N)=O)C(=O)N2CCC[C@H]2C(=O)N[C@@H](Cc2cnc[nH]2)C(=O)N[C@@H](CC(C)C)C(=O)N(C)CC(=O)N[C@@H](Cc2c[nH]c3ccccc23)C(=O)N[C@@H](CO)C(=O)N[C@@H](CCSC)C(=O)N1C [Compound No. 61] ({CH2CO}-F[NMeA]NPHL[Sar]WSM[NMeNle][NMeNle]RCG-NH2; thioether N-14) | 31
CCCC[C@H]1C(=O)N(C)[C@@H](CCCC)C(=O)N[C@@H](CCCNC(=N)N)C(=O)N[C@H](C(=O)NCC(N)=O)CSCC(=O)N[C@@H](Cc2ccccc2)C(=O)N(C)[C@@H](C)C(=O)N[C@@H](CC(N)=O)C(=O)N2CCC[C@H]2C(=O)N[C@@H](Cc2cnc[nH]2)C(=O)N[C@@H](CC(C)C)C(=O)N(C)CC(=O)N[C@@H](Cc2c[nH]c3ccccc23)C(=O)N[C@@H](CO)C(=O)N[C@@H](Cc2csc3ccccc23)C(=O)N1C [Compound No. 64] ({CH2CO}-F[NMeA]NPHL[Sar]WS[Bta][NMeNle][NMeNle]RCG-NH2; thioether N-14) | 7
CCCC[C@H]1C(=O)N[C@@H](CCCNC(=N)N)C(=O)N[C@H](C(=O)NCC(N)=O)CSCC(=O)N[C@@H](Cc2ccccc2)C(=O)N(C)[C@@H](C)C(=O)N[C@@H](CC(N)=O)C(=O)N2CCC[C@H]2C(=O)N[C@@H](Cc2cnc[nH]2)C(=O)N[C@@H](CC(C)C)C(=O)N(C)CC(=O)N[C@@H](Cc2c[nH]c3ccccc23)C(=O)N[C@@H](CO)C(=O)N[C@@H](Cc2c[nH]c3ccccc23)C(=O)N(C)[C@@H](CC(C)C)C(=O)N1C [Compound No. 65] (HELM PEPTIDE1{[O=C(C[*:3])[*:2]].F.[meA].N.P.H.L.[Sar].W.S.W.[meL].[CCCC[C@@H](C(=O)[*:2])N(C)[*:1]].R.C.G.[am]}$PEPTIDE1,PEPTIDE1,1:R3-15:R3$$$V2.0) | 43
CCCC[C@H]1C(=O)N[C@@H](CCCNC(=N)N)C(=O)N[C@H](C(=O)NCC(N)=O)CSCC(=O)N[C@@H](Cc2ccccc2)C(=O)N(C)[C@@H](C)C(=O)N[C@@H](CC(N)=O)C(=O)N2CCC[C@H]2C(=O)N[C@@H](Cc2cnc[nH]2)C(=O)N[C@@H](CC(C)C)C(=O)N(C)CC(=O)N[C@@H](Cc2c[nH]c3ccccc23)C(=O)N[C@@H](CO)C(=O)N[C@@H](Cc2c[nH]c3ccccc23)C(=O)N(C)[C@@H](Cc2ccccc2)C(=O)N1C [Compound No. 67] (HELM PEPTIDE1{[O=C(C[*:3])[*:2]].F.[meA].N.P.H.L.[Sar].W.S.W.[meF].[CCCC[C@@H](C(=O)[*:2])N(C)[*:1]].R.C.G.[am]}$PEPTIDE1,PEPTIDE1,1:R3-15:R3$$$V2.0) | 108

Same assay, conditions: Table 9, Compound No. 71 variant macrocyclic peptides; read-out: HTRF Human PD-L1/PD-1 Binding Assay IC50

Structure (SMILES) | IC50 [nM]
CCCC[C@H]1C(=O)NCC(=O)N[C@@H](CC(=O)O)C(=O)N[C@@H](C(C)C)C(=O)N(C)[C@@H](Cc2ccccc2)C(=O)N[C@@H](Cc2ccc(O)cc2)C(=O)N(C)CC(=O)N[C@@H](Cc2c[nH]c3ccccc23)C(=O)N[C@@H](Cc2ccc(O)cc2)C(=O)N[C@@H](CC(C)C)C(=O)N[C@H](C(=O)NCC(N)=O)CSCC(=O)N[C@@H](Cc2ccccc2)C(=O)N(C)[C@@H](Cc2ccccc2)C(=O)N1C [Compound No. 78] (HELM PEPTIDE1{[O=C(C[*:3])[*:2]].F.[meF].[CCCC[C@@H](C(=O)[*:2])N(C)[*:1]].G.D.V.[meF].Y.[Sar].W.Y.L.C.G.[am]}$PEPTIDE1,PEPTIDE1,1:R3-14:R3$$$V2.0) | 14
